# Results taken from US20080009418A1, “Selective Inhibitors” (Alchemia LTD., priority 2004, published 2008).
# Assays:
# Human μ-opioid (MOP) = target: T1, Human μ-opioid (MOP) (Homo sapiens, UniProt P35372); assay: Radioligand binding, human μ-opioid (MOP) membranes, FlashPlate, [3H]-Naloxone; settings: compound at 10 μM; for A7: inhibition of radioligand binding: FlashPlate; for A7 radioligand binding inhibition: human μ-opioid (MOP) membranes
# T1 construct: purchased Perkin Elmer Biosignal
# Outline: (§1)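 Cloned human receptor membranes were coated onto FlashPlate wells and incubated with radioligand and compound (added from a 0.5 mM DMSO daughter plate) for 1 hour at room temperature in the dark. Scintillation counting gave percent inhibition, with DMSO defining total and reference ligand defining non-specific binding.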
# Human Melanocortin (MC4) = target: T2, Human Melanocortin (MC4) (Homo sapiens, UniProt P32245); assay: Radioligand binding, human melanocortin MC4 membranes, FlashPlate, [125I]-NDP-αMSH; settings: compound at 10 μM; for A4: inhibition of radioligand binding: FlashPlate; for A4 radioligand binding inhibition: human melanocortin MC4 membranes
# T2 construct: purchased Perkin Elmer Biosignal
# T2 sequence (P32245 whole entry): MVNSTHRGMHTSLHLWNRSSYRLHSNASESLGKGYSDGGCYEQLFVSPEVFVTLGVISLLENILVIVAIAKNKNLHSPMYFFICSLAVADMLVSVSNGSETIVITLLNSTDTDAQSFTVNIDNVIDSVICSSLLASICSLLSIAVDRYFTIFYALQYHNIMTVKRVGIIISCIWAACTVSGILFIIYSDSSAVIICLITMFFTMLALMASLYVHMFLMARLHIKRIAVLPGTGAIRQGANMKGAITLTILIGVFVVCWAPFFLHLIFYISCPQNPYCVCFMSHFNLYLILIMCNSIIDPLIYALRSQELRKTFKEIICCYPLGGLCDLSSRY
# Outline: as §1
# Human Melanocortin (MC3) = target: T3, Human Melanocortin (MC3) (Homo sapiens, UniProt P41968); assay: Radioligand binding, human melanocortin MC3 membranes, FlashPlate, [125I]-NDP-αMSH; settings: compound at 10 μM; for A3: inhibition of radioligand binding: FlashPlate; for A3 radioligand binding inhibition: human melanocortin MC3 membranes
# T3 construct: purchased Perkin Elmer Biosignal
# T3 sequence (P41968 whole entry): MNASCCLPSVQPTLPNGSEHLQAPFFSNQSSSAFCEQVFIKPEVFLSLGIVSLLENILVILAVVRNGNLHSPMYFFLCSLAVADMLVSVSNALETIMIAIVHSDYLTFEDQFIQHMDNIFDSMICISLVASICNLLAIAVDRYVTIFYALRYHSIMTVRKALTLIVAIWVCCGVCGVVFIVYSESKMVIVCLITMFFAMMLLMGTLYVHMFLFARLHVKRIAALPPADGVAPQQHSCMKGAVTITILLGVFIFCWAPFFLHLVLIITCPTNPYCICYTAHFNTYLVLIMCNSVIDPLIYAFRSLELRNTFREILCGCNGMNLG
# Outline: as §1
# Human neurokinin (NK1) = target: T4, Human neurokinin (NK1) (Homo sapiens, UniProt P25103); assay: Radioligand binding, human neurokinin NK1 membranes, filtration, [125I]-Substance P; settings: compound at 10 μM; for A8: inhibition of radioligand binding: filtration; for A8 radioligand binding inhibition: human neurokinin NK1 membranes
# T4 construct: purchased Perkin Elmer Biosignal
# T4 sequence (P25103 whole entry): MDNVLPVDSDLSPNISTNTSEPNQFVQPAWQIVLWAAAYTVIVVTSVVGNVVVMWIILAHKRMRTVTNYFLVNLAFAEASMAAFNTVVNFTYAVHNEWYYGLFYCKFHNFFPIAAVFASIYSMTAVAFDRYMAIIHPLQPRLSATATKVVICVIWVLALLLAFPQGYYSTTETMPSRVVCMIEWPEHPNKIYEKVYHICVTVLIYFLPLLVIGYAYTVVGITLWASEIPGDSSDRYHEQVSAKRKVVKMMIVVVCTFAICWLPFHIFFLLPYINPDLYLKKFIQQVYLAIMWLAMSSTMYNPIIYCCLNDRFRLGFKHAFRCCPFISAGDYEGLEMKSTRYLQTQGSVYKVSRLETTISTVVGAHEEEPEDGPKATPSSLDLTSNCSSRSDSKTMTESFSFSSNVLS
# Outline: (§2)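 Percent inhibition of radioligand binding measured on recombinant human membranes: NK1 with [125I]-Substance P, KOP with [3H]-Diprenorphine. Incubation 1 h at room temperature, then harvest onto 0.3% PEI-soaked filters, cold Tris-HCl pH 7.4 washes and scintillation counting; non-specific binding from reference ligand wells.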
# [1] = target: T5, Human neuropeptide Y (NPY-Y1) (Homo sapiens, UniProt P25929); assay: Radioligand binding, human neuropeptide Y NPY-Y1 membranes, FlashPlate, [125I]-PYY; settings: compound at 10 μM; for A9: inhibition of radioligand binding: FlashPlate; for A9 radioligand binding inhibition: human NPY-Y1 membranes
# T5 construct: purchased Perkin Elmer Biosignal
# T5 sequence (P25929 1-384): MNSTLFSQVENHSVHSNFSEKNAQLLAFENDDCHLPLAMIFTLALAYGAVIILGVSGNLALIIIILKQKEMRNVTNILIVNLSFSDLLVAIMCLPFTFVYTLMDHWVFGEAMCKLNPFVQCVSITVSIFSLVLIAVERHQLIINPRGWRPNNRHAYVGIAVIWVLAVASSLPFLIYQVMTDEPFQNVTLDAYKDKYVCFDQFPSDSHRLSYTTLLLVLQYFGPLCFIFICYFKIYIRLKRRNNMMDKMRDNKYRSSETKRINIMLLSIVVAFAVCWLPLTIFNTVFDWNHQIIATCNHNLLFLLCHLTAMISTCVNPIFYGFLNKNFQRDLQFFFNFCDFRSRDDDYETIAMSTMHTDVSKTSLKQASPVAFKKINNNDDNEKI
# Outline: as §1
# Human δ-opioid (DOP) = target: T6, Human δ-opioid (DOP) (Homo sapiens, UniProt P41143); assay: Radioligand binding, human δ-opioid (DOP) membranes, FlashPlate, [3H]-Bremazocine; settings: compound at 10 μM; for A1: inhibition of radioligand binding: FlashPlate; for A1 radioligand binding inhibition: human δ-opioid (DOP) membranes
# T6 construct: purchased Perkin Elmer Biosignal
# T6 sequence (P41143 whole entry): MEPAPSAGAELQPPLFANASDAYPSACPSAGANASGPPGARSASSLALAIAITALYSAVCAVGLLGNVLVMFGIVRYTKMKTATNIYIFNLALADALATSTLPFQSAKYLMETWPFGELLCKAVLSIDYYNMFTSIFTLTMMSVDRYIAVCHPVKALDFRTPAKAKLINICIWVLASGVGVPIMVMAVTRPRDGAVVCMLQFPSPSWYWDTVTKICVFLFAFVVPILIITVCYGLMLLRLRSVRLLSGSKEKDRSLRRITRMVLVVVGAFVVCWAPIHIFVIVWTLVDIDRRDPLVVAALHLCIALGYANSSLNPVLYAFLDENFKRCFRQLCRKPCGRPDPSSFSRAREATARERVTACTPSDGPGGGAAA
# Outline: as §1
# Mouse urotensin (mUR2) = target: T7, Mouse urotensin (mUR2) (Mus musculus, UniProt Q8VIH9); assay: Radioligand binding, mouse urotensin mUR2 membranes, FlashPlate, [125I]-Urotensin II; settings: compound at 10 μM; for A11: inhibition of radioligand binding: FlashPlate; for A11 radioligand binding inhibition: mouse urotensin mUR2 membranes
# T7 construct: purchased Perkin Elmer Biosignal
# T7 sequence (Q8VIH9 1-385): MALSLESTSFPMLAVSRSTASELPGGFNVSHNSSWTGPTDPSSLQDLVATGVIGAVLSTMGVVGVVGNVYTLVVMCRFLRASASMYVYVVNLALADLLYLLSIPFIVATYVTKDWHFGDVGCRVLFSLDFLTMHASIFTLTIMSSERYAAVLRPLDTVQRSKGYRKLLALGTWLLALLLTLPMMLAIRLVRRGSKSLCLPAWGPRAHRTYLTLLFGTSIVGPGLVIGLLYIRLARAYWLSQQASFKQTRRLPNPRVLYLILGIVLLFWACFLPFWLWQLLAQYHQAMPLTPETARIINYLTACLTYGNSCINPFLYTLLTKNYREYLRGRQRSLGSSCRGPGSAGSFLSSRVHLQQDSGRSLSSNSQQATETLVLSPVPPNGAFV
# Outline: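 Cloned mouse urotensin (mUR2) receptor membranes from Perkin Elmer Biosignal were immobilized in FlashPlate microplates using a proprietary coating. Each well got 19.5 μl buffer, then 0.5 μl of DMSO, reference ligand, or compound. Adding 5 μl of [125I]-Urotensin II, diluted to 5× final concentration in binding buffer, started binding. Plates were sealed with TopSeal-A and incubated 1 hour at room temperature in the dark. Wells were counted for 30 seconds each on a TopCount after a 60-second delay, and percentage inhibition was calculated.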
# Human melanocortin (MC5) = target: T8, Human melanocortin (MC5) (Homo sapiens, UniProt P33032); assay: Radioligand binding, human melanocortin MC5 membranes, FlashPlate, [125I]-NDP-αMSH; settings: compound at 10 μM; for A5: inhibition of radioligand binding: FlashPlate; for A5 radioligand binding inhibition: human melanocortin MC5 membranes
# T8 construct: purchased Perkin Elmer Biosignal
# T8 sequence (P33032 whole entry): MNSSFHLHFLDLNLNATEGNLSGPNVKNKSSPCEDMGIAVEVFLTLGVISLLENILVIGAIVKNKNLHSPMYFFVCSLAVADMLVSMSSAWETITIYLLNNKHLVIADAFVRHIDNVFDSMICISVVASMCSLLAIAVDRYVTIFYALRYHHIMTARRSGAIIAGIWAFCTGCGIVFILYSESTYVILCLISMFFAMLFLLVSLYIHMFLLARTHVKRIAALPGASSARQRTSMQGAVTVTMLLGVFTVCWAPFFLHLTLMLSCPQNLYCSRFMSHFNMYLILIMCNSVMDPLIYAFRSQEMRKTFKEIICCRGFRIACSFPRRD
# Outline: as §1
# [2] = target: T9, Human melanin-concentrating hormone (MCH1) (Homo sapiens, UniProt Q99705); assay: Radioligand binding, human melanin-concentrating hormone MCH1 membranes, FlashPlate, [125I]-S36057; settings: compound at 10 μM; for A6: inhibition of radioligand binding: [125I]-S36057, FlashPlate; for A6 radioligand binding inhibition: human MCH1 membranes
# T9 construct: purchased Perkin Elmer Biosignal
# T9 sequence (Q99705 whole entry): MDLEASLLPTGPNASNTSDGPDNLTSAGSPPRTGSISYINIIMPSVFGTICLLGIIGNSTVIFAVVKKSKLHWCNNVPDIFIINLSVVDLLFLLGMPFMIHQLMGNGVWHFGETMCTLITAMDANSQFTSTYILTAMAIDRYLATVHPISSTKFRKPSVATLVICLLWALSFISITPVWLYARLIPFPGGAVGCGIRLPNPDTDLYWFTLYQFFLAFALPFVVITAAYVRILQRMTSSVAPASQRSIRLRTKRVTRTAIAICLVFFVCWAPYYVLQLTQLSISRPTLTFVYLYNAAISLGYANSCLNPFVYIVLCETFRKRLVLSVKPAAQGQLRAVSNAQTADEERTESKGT
# Outline: as §1
# Human opioid (ORL1) = target: T10, Human opioid (ORL1) (Homo sapiens, UniProt P41146); assay: Radioligand binding, human opioid ORL1 membranes, FlashPlate, [125I]-Nociceptin; settings: compound at 10 μM; for A10: inhibition of radioligand binding: FlashPlate; for A10 radioligand binding inhibition: human ORL1 membranes
# T10 construct: purchased Perkin Elmer Biosignal
# T10 sequence (P41146 whole entry): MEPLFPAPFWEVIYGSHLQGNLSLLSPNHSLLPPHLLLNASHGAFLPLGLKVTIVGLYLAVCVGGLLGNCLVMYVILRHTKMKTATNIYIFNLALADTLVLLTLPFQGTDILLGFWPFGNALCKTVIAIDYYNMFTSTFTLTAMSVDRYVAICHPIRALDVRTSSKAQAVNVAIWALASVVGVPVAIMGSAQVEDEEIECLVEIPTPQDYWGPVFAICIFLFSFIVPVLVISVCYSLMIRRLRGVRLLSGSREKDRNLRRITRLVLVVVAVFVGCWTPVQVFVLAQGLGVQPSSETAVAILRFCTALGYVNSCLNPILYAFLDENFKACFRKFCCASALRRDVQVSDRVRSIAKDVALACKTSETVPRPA
# Outline: as §1
# Human κ-Opioid (KOP) = target: T11, Human κ-Opioid (KOP) (Homo sapiens, UniProt P41145); assay: Radioligand binding, human κ-opioid (KOP) membranes, filtration, [3H]-Diprenorphine; settings: compound at 10 μM; for A2: inhibition of radioligand binding: filtration; for A2 radioligand binding inhibition: human κ-opioid (KOP) membranes
# T11 construct: purchased Perkin Elmer Biosignal
# T11 sequence (P41145 whole entry): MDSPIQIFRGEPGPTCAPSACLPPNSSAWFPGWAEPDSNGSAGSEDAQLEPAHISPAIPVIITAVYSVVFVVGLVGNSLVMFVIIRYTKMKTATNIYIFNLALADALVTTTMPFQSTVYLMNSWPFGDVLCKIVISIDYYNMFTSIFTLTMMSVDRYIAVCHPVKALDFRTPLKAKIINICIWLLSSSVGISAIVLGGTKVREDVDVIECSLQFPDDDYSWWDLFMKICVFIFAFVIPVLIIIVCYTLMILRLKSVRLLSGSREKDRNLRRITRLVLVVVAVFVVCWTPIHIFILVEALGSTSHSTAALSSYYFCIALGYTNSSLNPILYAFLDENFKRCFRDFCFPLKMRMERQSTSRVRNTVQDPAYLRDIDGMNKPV
# Outline: as §2
# T1 sequence (P35372 whole entry): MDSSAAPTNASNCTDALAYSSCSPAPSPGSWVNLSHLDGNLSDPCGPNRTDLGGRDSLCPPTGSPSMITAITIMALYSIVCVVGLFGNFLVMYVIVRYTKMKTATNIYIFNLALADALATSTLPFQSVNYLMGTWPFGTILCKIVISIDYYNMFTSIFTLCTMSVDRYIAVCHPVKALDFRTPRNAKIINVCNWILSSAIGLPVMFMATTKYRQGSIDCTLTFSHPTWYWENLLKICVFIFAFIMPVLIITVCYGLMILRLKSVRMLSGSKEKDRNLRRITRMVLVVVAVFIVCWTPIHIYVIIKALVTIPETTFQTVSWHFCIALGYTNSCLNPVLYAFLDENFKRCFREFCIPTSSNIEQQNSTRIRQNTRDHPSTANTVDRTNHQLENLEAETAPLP
SMILES,A7: inhibition of radioligand binding (Human μ-opioid (MOP); [3H]-Naloxone),A4: inhibition of radioligand binding (Human Melanocortin (MC4); [125I]-NDP-αMSH),A3: inhibition of radioligand binding (Human Melanocortin (MC3); [125I]-NDP-αMSH),A8: inhibition of radioligand binding (Human neurokinin (NK1); [125I]-Substance P),A9: inhibition of radioligand binding ([1]; [125I]-PYY),A1: inhibition of radioligand binding (Human δ-opioid (DOP); [3H]-Bremazocine),A11: inhibition of radioligand binding (Mouse urotensin (mUR2); [125I]-Urotensin II),A5: inhibition of radioligand binding (Human melanocortin (MC5); [125I]-NDP-αMSH),A6: inhibition of radioligand binding [2],A10: inhibition of radioligand binding (Human opioid (ORL1); [125I]-Nociceptin),A2: inhibition of radioligand binding (Human κ-Opioid (KOP); [3H]-Diprenorphine),A7 radioligand binding inhibition (Human μ-opioid (MOP)),A4 radioligand binding inhibition (Human Melanocortin (MC4)),A3 radioligand binding inhibition (Human Melanocortin (MC3)),A8 radioligand binding inhibition (Human neurokinin (NK1)),A9 radioligand binding inhibition [1],A1 radioligand binding inhibition (Human δ-opioid (DOP)),A11 radioligand binding inhibition (Mouse urotensin (mUR2)),A5 radioligand binding inhibition (Human melanocortin (MC5)),A6 radioligand binding inhibition [2],further results
COCC1OC(OCCc2ccccc2)C(NC(=O)CCCN)C(OCc2ccc(Cl)cc2)C1O (stereo not drawn) [compound 222],− (“−” indicates less than 50% inhibition at 10 μM),− (“−” indicates less than 50% inhibition at 10 μM),− (“−” indicates less than 50% inhibition at 10 μM),+ (“+” indicates greater than 50% inhibition at 10 μM),− (“−” indicates less than 50% inhibition at 10 μM),− (“−” indicates less than 50% inhibition at 10 μM),− (“−” indicates less than 50% inhibition at 10 μM),+ (“+” indicates greater than 50% inhibition at 10 μM),− (“−” indicates less than 50% inhibition at 10 μM),− (“−” indicates less than 50% inhibition at 10 μM),− (“−” indicates less than 50% inhibition at 10 μM),,,,,,,,,,
NCCCC(=O)NC1C(OCc2ccccc2)OC(COCc2ccc(Cl)cc2)C(O)C1OCc1ccc2ccccc2c1 (stereo not drawn) [compound 377],,,,,,,,,,,,,,,,,,,,,"A7: inhibition of radioligand binding, human μ-opioid (MOP) (Human μ-opioid (MOP); [3H]-Naloxone): − (“−” indicates less than 50% inhibition at 10 μM); A4: inhibition of radioligand binding, human melanocortin (MC4) (Human Melanocortin (MC4); [125I]-NDP-αMSH): + (“+” indicates greater than 50% inhibition at 10 μM); A3: inhibition of radioligand binding, human melanocortin (MC3) (Human Melanocortin (MC3); [125I]-NDP-αMSH): + (“+” indicates greater than 50% inhibition at 10 μM); A8: inhibition of radioligand binding, human neurokinin (NK1) (Human neurokinin (NK1); [125I]-Substance P): + (“+” indicates greater than 50% inhibition at 10 μM); A9: inhibition of radioligand binding, human neuropeptide Y (NPY-Y1) ([1]; [125I]-PYY): − (“−” indicates less than 50% inhibition at 10 μM); A1: inhibition of radioligand binding, human δ-opioid (DOP) (Human δ-opioid (DOP); [3H]-Bremazocine): − (“−” indicates less than 50% inhibition at 10 μM); A11: inhibition of radioligand binding, mouse urotensin (mUR2) (Mouse urotensin (mUR2); [125I]-Urotensin II): − (“−” indicates less than 50% inhibition at 10 μM); A5: inhibition of radioligand binding, human melanocortin (MC5) (Human melanocortin (MC5); [125I]-NDP-αMSH): + (“+” indicates greater than 50% inhibition at 10 μM); A6: inhibition of radioligand binding, human melanin-concentrating hormone (MCH1) ([2]; [125I]-S36057): − (“−” indicates less than 50% inhibition at 10 μM); A10: inhibition of radioligand binding, human opioid (ORL1) (Human opioid (ORL1); [125I]-Nociceptin): − (“−” indicates less than 50% inhibition at 10 μM); A2: inhibition of radioligand binding, human κ-opioid (KOP) (Human κ-Opioid (KOP); [3H]-Diprenorphine): − (“−” indicates less than 50% inhibition at 10 μM)"
CSC1OC(COCc2ccc(-c3ccccc3)cc2)C(O)C(OCc2ccccc2)C1NC(=O)CNC(=N)N (stereo not drawn) [compound 255],− (“−” indicates less than 50% inhibition at 10 μM),+ (“+” indicates greater than 50% inhibition at 10 μM),− (“−” indicates less than 50% inhibition at 10 μM),+ (“+” indicates greater than 50% inhibition at 10 μM),− (“−” indicates less than 50% inhibition at 10 μM),− (“−” indicates less than 50% inhibition at 10 μM),− (“−” indicates less than 50% inhibition at 10 μM),+ (“+” indicates greater than 50% inhibition at 10 μM),− (“−” indicates less than 50% inhibition at 10 μM),− (“−” indicates less than 50% inhibition at 10 μM),− (“−” indicates less than 50% inhibition at 10 μM),,,,,,,,,,
COC[C@H]1OC(OCc2ccc3ccccc3c2)[C@H](NC(=O)CCCNC(=N)N)[C@@H](OCc2ccccc2)[C@@H]1O (stereo partly drawn) [compound 21],,,,,,,,,,,,− (“−” indicates less than 50% inhibition at 10 μM),− (“−” indicates less than 50% inhibition at 10 μM),− (“−” indicates less than 50% inhibition at 10 μM),+ (“+” indicates greater than 50% inhibition at 10 μM),− (“−” indicates less than 50% inhibition at 10 μM),− (“−” indicates less than 50% inhibition at 10 μM),− (“−” indicates less than 50% inhibition at 10 μM),− (“−” indicates less than 50% inhibition at 10 μM),− (“−” indicates less than 50% inhibition at 10 μM),A10 radioligand binding inhibition (Human opioid (ORL1)): − (“−” indicates less than 50% inhibition at 10 μM); A2 radioligand binding inhibition (Human κ-Opioid (KOP)): − (“−” indicates less than 50% inhibition at 10 μM)
COCC1OC(OCc2ccc3ccccc3c2)C(NC(=O)CCN)C(OCc2ccc(-c3ccccc3)cc2)C1O (stereo not drawn) [compound 243],− (“−” indicates less than 50% inhibition at 10 μM),+ (“+” indicates greater than 50% inhibition at 10 μM),− (“−” indicates less than 50% inhibition at 10 μM),+ (“+” indicates greater than 50% inhibition at 10 μM),− (“−” indicates less than 50% inhibition at 10 μM),− (“−” indicates less than 50% inhibition at 10 μM),− (“−” indicates less than 50% inhibition at 10 μM),+ (“+” indicates greater than 50% inhibition at 10 μM),− (“−” indicates less than 50% inhibition at 10 μM),− (“−” indicates less than 50% inhibition at 10 μM),− (“−” indicates less than 50% inhibition at 10 μM),,,,,,,,,,
COC[C@H]1OC(OCc2ccc(Cl)cc2)[C@H](NC(=O)CNC(=N)N)[C@@H](OCc2ccc3ccccc3c2)[C@@H]1O (stereo partly drawn) [compound 31],,,,,,,,,,,,+ (“+” indicates greater than 50% inhibition at 10 μM),− (“−” indicates less than 50% inhibition at 10 μM),+ (“+” indicates greater than 50% inhibition at 10 μM),− (“−” indicates less than 50% inhibition at 10 μM),− (“−” indicates less than 50% inhibition at 10 μM),− (“−” indicates less than 50% inhibition at 10 μM),− (“−” indicates less than 50% inhibition at 10 μM),+ (“+” indicates greater than 50% inhibition at 10 μM),− (“−” indicates less than 50% inhibition at 10 μM),A10 radioligand binding inhibition (Human opioid (ORL1)): − (“−” indicates less than 50% inhibition at 10 μM); A2 radioligand binding inhibition (Human κ-Opioid (KOP)): − (“−” indicates less than 50% inhibition at 10 μM)
